In patent US4374284A, “Antiulcer, antiinflammatory, and antiallergic agent comprising as the main ingredient olean-12-ene-3β, 30-diol which is devoid of side effects of glycyrrhetinic acid and a new process for preparation of olean-12-ene-3β, 30-diol” (Minophagen Pharmaceutical Company, priority 1980, dated 1983):
“Also recorded” adds a separate entry of the source.

Tests used:
[1] = system: Arthus phenomenon (type III allergy); experiment: Arthus phenomenon test (type III allergy); type: in vivo, female guinea pig
Experimental: (b) Arthus phenomenon test (type III allergy)
To the back part of female guinea pig weighing 250-300 g, 10 mg/kg of egg albumin was administered subcutaneously. After 21 days, 2 mg/kg of egg albumin was administered intravenously, whereby death of the guinea pig due to anaphylactic shock was recognized to confirm establishment of sensitization. Thirty minutes after compounds to be tested were administered intraperitoneally, 0, 10, 100, 1000 μg/0.1 ml of egg albumin were each administered to the abdominal part which had been shaved.

[2] = system: writhing induced by acetic acid; experiment: effect on writhing induced by acetic acid (analgesic action); type: in vivo, male ddY mice; conditions: for number of writhing: counted for 10 minutes, control 24.9 ± 1.6, ** p < 0.01
Experimental: (b) Effect on writhing induced by acetic acid (analgesic action)
The present compound olean-12-ene-3β, 30-diol (I) was administered orally to male ddY mice weighing 25-27 g. After 30 minutes, saline containing 0.7% acetic acid was administered intraperitoneally. The number of writhings of the mice was counted for 10 minutes from, 10 min. of the administration. Aspirin was used as the reference.

[3] = biological target: T1, Δ^4 -5β-reductase for aldosterone in rat liver (Rattus norvegicus, UniProt P31210); experiment: inhibitory action on Δ^4-5β-reductase for aldosterone; type: biochemical; conditions: summary in words, liver reductase
T1 construct: centrifuged again at 105,000 g to obtain Δ^4 -5β-reductase as the supernatant; from tissue; host or cells: rat liver, 105,000 g supernatant (cytosol)
T1 sequence (P31210 1-326): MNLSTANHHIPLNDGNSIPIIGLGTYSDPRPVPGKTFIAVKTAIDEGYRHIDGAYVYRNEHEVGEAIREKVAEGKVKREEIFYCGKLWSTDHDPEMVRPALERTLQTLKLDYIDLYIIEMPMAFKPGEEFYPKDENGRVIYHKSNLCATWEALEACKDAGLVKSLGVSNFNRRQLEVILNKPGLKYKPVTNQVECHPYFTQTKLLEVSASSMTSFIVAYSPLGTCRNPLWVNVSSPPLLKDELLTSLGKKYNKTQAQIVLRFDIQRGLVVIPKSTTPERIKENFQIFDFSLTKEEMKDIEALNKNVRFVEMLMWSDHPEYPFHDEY
Experimental: (§1) In vitro experimental results regarding effects of glycyrrhetinic acid (II) and its modified compounds (III), (IV), and (I) on Δ^4 -5α and 5β-reductase for aldosterone in rat liver will be shown below.
(§2) Assay for activity of Δ^4 -5α and 5β-reductase
(§3) (1) Preparation of enzyme solutions
(§4) Rat livers were perfused with saline and excised to prepare a 25% or 50% homogenate with a solution of 0.25 M sucrose and 1 mM EDTA. The homogenate was spun at 10,000 g for 20 minutes to separate supernatant, which was centrifuged again at 105,000 g to obtain Δ^4 -5β-reductase as the supernatant. The pellet was appropriately diluted with a solution of 0.25 M sucrose-1 mM EDTA to use as a 5α-reductase solution.
(§5) (2) Conditions for incubation and assay
(§6) 1 Aldosterone . . . 0.173 μM/0.05 ml ethanol solution
(§7) 2 Glycyrrhetinic acid or its modified compounds . . . 0.173 μM/0.05 ml ethanol solution Control . . . 0.05 ml ethanol solution
(§8) 5α-reductase solution 0.1 ml
(§9) 5β-reductase solution 0.1 ml or 0.2 ml
(§10) 5 Phosphate buffer (0.1 M, pH 7.2) 1 ml
(§11) The components 1 , 2 , 3 , 4 , 5 , and 6 mentioned above were mixed to bring the total volume up to 2.5 ml. The mixture was incubated at 37° C. for 20 minutes. Before the incubation, however, 1 ml aliquot was removed from 2.5 ml of the mixture mentioned above and extracted with 5 ml of methylene dichloride. After the incubation, the remaining 1.5 ml was extracted with 5 ml of methylene dichloride. The optical density of the two methylene dichloride solutions prepared before and after the incubation was measured by a spectrophotometer (Hitachi) at 240 mμ. Inhibition % of Δ^4 -5α and 5β-reductase activity was calculated from the difference in the optical density.

[4] = system: Δ^4 -5β-reductase for aldosterone in rat liver; experiment: as above; type: biochemical; conditions: conclusion from reductase experiments
Experimental: as §1, §2, §3, §4, §5, §6, §7, §8, §9, §10, §11

[5] = biological target: T2, Δ^4 -5α-reductase for aldosterone in rat liver (Rattus norvegicus, UniProt P24008); experiment: inhibitory action on Δ^4-5α-reductase for aldosterone; type: biochemical
T2 construct: The pellet was appropriately diluted with a solution of 0.25 M sucrose-1 mM EDTA to use as a 5α-reductase solution; from tissue; host or cells: rat liver, 105,000 g pellet
T2 sequence (P24008 1-259): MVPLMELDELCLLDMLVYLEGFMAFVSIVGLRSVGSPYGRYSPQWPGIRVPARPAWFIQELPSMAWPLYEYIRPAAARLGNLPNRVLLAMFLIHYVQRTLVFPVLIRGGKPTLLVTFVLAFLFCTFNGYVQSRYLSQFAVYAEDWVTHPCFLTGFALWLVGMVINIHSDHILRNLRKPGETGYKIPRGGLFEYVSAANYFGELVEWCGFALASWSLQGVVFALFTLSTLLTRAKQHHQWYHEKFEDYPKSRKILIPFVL
Experimental: as §1, §2, §3, §4, §5, §6, §7, §8, §9, §10, §11

aspirin-induced ulcer = experiment: rat experiment on aspirin-induced ulcer, pylorus ligated (experiment a); type: in vivo, male Wister rats
Experimental: (b) Rat experiment on aspirin-induced ulcer
(a) Experimental procedures:
Male Wister rats weighing about 220 g were made to fast for 24 hours. Water was given freely. The rats were laparotomized under anesthesia with ether. The stomach was drawn out and ligated at the pylorus. Immediately thereafter, 1% CMC suspension of aspirin was administered orally in a dose of 100 mg/kg/5 ml. Aqueous suspensions of compounds to be tested were prepared in the same manner as in the experiment (a) and administered intraduodenally at the same time. The wound was closed and the rats were set free. After 7 hours, the stomach was excised and ulcer was measured in the same manner as in the experiment (a).

stress-induced ulcer = experiment: mice experiments on stress-induced ulcer (restraint plus water immersion); type: in vivo, male ddY mice; conditions: for ulcer index: 200 mg/kg p.o.
Experimental: (a) Mice Experiments on stress-induced ulcer Experimental procedures:
Male ddY mice weighing about 20 g were made to fast for 18 hours. Water was given freely. Compounds to be tested were suspended in Tween 80 to prepare an aqueous suspension and administered orally. Immediately thereafter, the mice were subjected to restraint plus water immersion stress (25° C.) for 6 hours. Thereafter, the stomach was excised and fixed by formalin. The degree of ulcer was shown as a total of the length. The control group was given only the solvent.

`CC1(C)[C@@H](O)CC[C@]2(C)[C@H]3CC=C4[C@@H]5C[C@@](C)(CO)CC[C@]5(C)CC[C@@]4(C)[C@]3(C)CC[C@@H]12` [I, olean-12-ene-3β, 30-diol] was tested, and the area ([1]; egg albumin 10 μg/0.1 ml, 100 mg/kg intraperitoneally, control 0) was 0 mm^2, the area ([1]; egg albumin 10 μg/0.1 ml, 200 mg/kg intraperitoneally, control 0) was 0 mm^2 and the area ([1]; egg albumin 100 μg/0.1 ml, 100 mg/kg intraperitoneally, control 110 ± 67) was 98 ± 98 mm^2. For the same compound, the area ([1]; egg albumin 100 μg/0.1 ml, 200 mg/kg intraperitoneally, control 110 ± 67) was 30 ± 30 mm^2, the area ([1]; egg albumin 1000 μg/0.1 ml, 100 mg/kg intraperitoneally, control 409 ± 130) was 334 ± 174 mm^2 and the area ([1]; egg albumin 1000 μg/0.1 ml, 200 mg/kg intraperitoneally, control 409 ± 130) was 76 ± 62 mm^2. For the same compound, the number of writhing ([2]; 100 mg/kg p.o.) was 15.5 ± 2.8, the number of writhing ([2]; 200 mg/kg p.o.) was 11.1 ± 1.6 and the number of writhing ([2]; 400 mg/kg p.o.) was 8.0 ± 1.7. For the same compound, the “effect on writhing (in words)” value ([2]; increasing doses) was “significantly decrease the number of writhing; also recorded: a little stronger than that of (II), but not so perfect as aspirin”, the “effect upon Δ^4 -5α-5β-reductase (in words), 5β” value [3] was “no inhibitory activity” and the “aldosterone-like action (in words)” value [4] was “entirely devoid of aldosterone-like action”. The inhibition at 0.173 µM ([5]; pH 7.2, read-out: 5α-reductase (inhibition %)) was -7.1%, the “effect upon Δ^4 -5α-5β-reductase (in words), 5α” value ([5]; summary in words, liver reductase) was “no inhibitory activity” and the ulcer index (aspirin-induced ulcer; 320 mg/kg (head p.o.; text intraduodenally), aspirin 100 mg/kg, after 7 hours, control 14.1 ± 3.14) was 6.2 ± 2.37. For the same compound, the “inhibitory effect on aspirin-induced ulcer, experiment (a) (in words)” value (aspirin-induced ulcer; rat, in vivo) was “showed an inhibitory effect”, the “inhibitory effect on stress-induced ulcer (in words)” value (stress-induced ulcer; 200 mg/kg) was “showed a stronger inhibitory effect than glycyrrhetinic acid (II)” and the ulcer index (stress-induced ulcer; 1st experiment, control 5.63 ± 0.55) was 2.94 ± 0.81. For the same compound, the ulcer index (stress-induced ulcer; 2nd experiment, control 4.13 ± 0.8) was 2.19 ± 0.6, the ulcer index (stress-induced ulcer; 3rd experiment, control 6.00 ± 0.87) was 3.88 ± 0.79 and the ulcer index (stress-induced ulcer; 4th experiment, control 4.20 ± 0.70) was 1.89 ± 0.53. For the same compound, the “antiulcer effect compared with glycyrrhetinic acid (in words)” value (stress-induced ulcer; all antiulcer experiments (stress, aspirin, acetic acid)) was “shows superior effects to glycyrrhetinic acid in all the experiments”.
